Our source for the GI50 and TGI values is PubChem BioAssay (NCI).

Molecules are shown by their SMILES.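 48-hour exposure; five concentrations; linearly interpolated endpoints. GI50 is the concentration that inhibits growth by half. TGI marks complete inhibition of growth.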 Where only a bound is given, the exact number is not on record here.

Some test systems named below: 786-0 renal; KM12 colon; SR leukemia; T-47D breast; MDA-MB-435; MOLT-4 leukemia; NCI-H522 lung; LOX IMVI melanoma; HS 578T breast; MALME-3M melanoma.
What all share (experiment): NCI anticancer screen, dose series, 48 h

For the compound `O=C(c1ccccc1)C(CN1CCOCC1)c1ccccc1` (stereo not given), the GI50 with 786-0 renal is 2.72 µM; in the test with KM12 colon it was 1.8 µM; in the test on SR leukemia it was 1.02 µM; with T-47D breast it was 3 µM; in the test with MDA-MB-435, 1.35 µM; with MOLT-4 leukemia, 2.24 µM. The GI50 in the test on NCI-H522 lung is 0.255 µM; with LOX IMVI melanoma it was 1.32 µM; in the test with HS 578T breast, 1.77 µM; with MALME-3M melanoma, 1.79 µM. Besides, the TGI amounted to 6.93 µM with 786-0 renal; 3.73 µM in the test on KM12 colon; 4.45 µM with SR leukemia; 9.87 µM with T-47D breast; 3.36 µM with MDA-MB-435; 6.43 µM in the test with MOLT-4 leukemia. The TGI in the test with NCI-H522 lung came out at 0.995 µM; with LOX IMVI melanoma it was 3.19 µM; with HS 578T breast, 8.37 µM; in the test with MALME-3M melanoma it was 4.03 µM.
Consider `N#C/C(=C\c1c(-c2ccccc2)[nH]c2ccccc12)S(=O)(=O)c1ccccc1`, for which the GI50 in the test with 786-0 renal is 8.46 µM; in the test on KM12 colon, 0.625 µM; with SR leukemia, 17.3 µM; with T-47D breast it was 3.82 µM; with MDA-MB-435, 0.287 µM; in the test with MOLT-4 leukemia, 1.68 µM. The GI50 with NCI-H522 lung was 4.51 µM; with LOX IMVI melanoma, 4.47 µM; in the test with HS 578T breast it was 8.76 µM; in the test on MALME-3M melanoma, 6.77 µM. Besides, the TGI in the test on 786-0 renal was more than 100 µM; with KM12 colon, 13.9 µM; in the test with SR leukemia it was more than 100 µM; in the test with T-47D breast, 33.8 µM; with MDA-MB-435, 3.77 µM; in the test with MOLT-4 leukemia it was more than 100 µM. Also, the TGI in the test with NCI-H522 lung is 25.5 µM; in the test on LOX IMVI melanoma it was 25.5 µM; in the test on HS 578T breast it was more than 26.8 µM; with MALME-3M melanoma it was more than 55.8 µM.
Turning to `CN1CCN(Cc2ccc(NC(=O)c3cncc(C#Cc4cnc(N)c5ccncc45)c3)cc2C(F)(F)F)CC1`, the GI50 is 1.73 µM in the test on 786-0 renal; 0.027 µM in the test on KM12 colon; 0.567 µM with SR leukemia; 1.75 µM in the test on T-47D breast; 0.218 µM in the test with MDA-MB-435; 0.328 µM in the test on MOLT-4 leukemia. Further, the GI50 was 0.897 µM with NCI-H522 lung, 0.176 µM in the test with LOX IMVI melanoma, 0.286 µM in the test with HS 578T breast and 0.106 µM in the test with MALME-3M melanoma. The TGI is 7.48 µM with 786-0 renal; 5.52 µM in the test with KM12 colon; more than 24.5 µM with SR leukemia; 12.5 µM with T-47D breast; 4 µM with MDA-MB-435; 8.68 µM in the test on MOLT-4 leukemia. In addition, the TGI came to 8.51 µM in the test with NCI-H522 lung, 0.707 µM in the test on LOX IMVI melanoma, 1.98 µM with HS 578T breast and 0.404 µM in the test with MALME-3M melanoma.
Take `C=CC(=O)N1CCN(c2ccc3cccc(NC(=O)c4cnc(C)cn4)c3n2)CC1`: the GI50 in the test with 786-0 renal is 1.77 µM; in the test with KM12 colon, 2.84 µM; in the test on SR leukemia it was 0.838 µM; in the test on T-47D breast it was 3.48 µM; in the test with MDA-MB-435 it was 3.67 µM; in the test with MOLT-4 leukemia, 2.18 µM. For the same compound, the GI50 with NCI-H522 lung is 1.99 µM; with LOX IMVI melanoma, 5.14 µM; in the test with HS 578T breast, 2.28 µM; in the test with MALME-3M melanoma, 2.89 µM. Moreover, the TGI in the test with 786-0 renal is more than 100 µM; in the test with KM12 colon, 19 µM; in the test with SR leukemia, 12.7 µM; with T-47D breast it was more than 100 µM; in the test with MDA-MB-435, 32.9 µM; with MOLT-4 leukemia it was 6.66 µM. The TGI with NCI-H522 lung was determined as 17.8 µM; in the test with LOX IMVI melanoma, 21.4 µM; with HS 578T breast, 26.3 µM; in the test with MALME-3M melanoma it was 15.9 µM.
`COC(=O)C(Cc1ccccc1)NC(=O)NC(=O)NC(=O)CI` (stereo not given): the GI50 in the test with 786-0 renal was 3.35 µM; in the test on KM12 colon it was 15.8 µM; in the test with SR leukemia it was 1.2 µM; in the test with T-47D breast, 2.71 µM; in the test on MDA-MB-435 it was 3.38 µM; in the test on MOLT-4 leukemia, 2 µM. Besides, the GI50 is 1.61 µM with NCI-H522 lung, 1.56 µM in the test with LOX IMVI melanoma, 34.3 µM with HS 578T breast and 1.55 µM in the test on MALME-3M melanoma. The TGI stood at 10.9 µM in the test on 786-0 renal; 32.6 µM with KM12 colon; 3.67 µM in the test with SR leukemia; 8.5 µM with T-47D breast; 13.8 µM in the test with MDA-MB-435; 5.21 µM with MOLT-4 leukemia. Moreover, the TGI with NCI-H522 lung is 3.38 µM; with LOX IMVI melanoma, 3.23 µM; with HS 578T breast it was more than 100 µM; with MALME-3M melanoma, 3.34 µM.
Regarding `N/C(=N\N=C\c1ccc(-c2ccccc2)cc1)N[N+](=O)[O-]`, the GI50 in the test with 786-0 renal is 10.4 µM; in the test on KM12 colon, 1.27 µM; in the test on SR leukemia it was 0.692 µM; in the test on T-47D breast it was 4.8 µM; in the test with MDA-MB-435, 0.226 µM; in the test with MOLT-4 leukemia it was 5.76 µM. Moreover, the GI50 was 2.13 µM in the test with NCI-H522 lung, 5.75 µM in the test with LOX IMVI melanoma, 1.43 µM in the test on HS 578T breast and more than 100 µM in the test with MALME-3M melanoma. Moreover, the TGI in the test with 786-0 renal is more than 100 µM; in the test on KM12 colon, more than 100 µM; with SR leukemia, more than 100 µM; in the test on T-47D breast it was more than 100 µM; in the test with MDA-MB-435 it was 0.599 µM; in the test on MOLT-4 leukemia it was more than 100 µM. Besides, the TGI with NCI-H522 lung was more than 100 µM; in the test on LOX IMVI melanoma, more than 100 µM; in the test with HS 578T breast it was more than 61.3 µM; in the test on MALME-3M melanoma it was more than 100 µM.
Regarding `O=C1C=C(Br)c2c(-c3ccccc3)oc3cccc1c23`, the TGI in the test on 786-0 renal is more than 100 µM; in the test with KM12 colon, more than 100 µM; with SR leukemia, more than 30.8 µM; in the test with T-47D breast, more than 100 µM; in the test with MDA-MB-435, more than 100 µM; with MOLT-4 leukemia it was more than 67.8 µM. The TGI with NCI-H522 lung is more than 100 µM; in the test with LOX IMVI melanoma, more than 65.4 µM; with HS 578T breast, more than 100 µM; with MALME-3M melanoma, more than 100 µM.
With `O=C(N/N=C/c1ccc2c(c1)CCC2)c1ccccc1O`, the TGI in the test on 786-0 renal was 45 µM; in the test with KM12 colon, 50.7 µM; in the test with SR leukemia, more than 100 µM; in the test on T-47D breast it was more than 100 µM; in the test on MDA-MB-435, 51.9 µM; with MOLT-4 leukemia it was more than 100 µM. Also, the TGI was 61.1 µM with NCI-H522 lung, more than 100 µM in the test with LOX IMVI melanoma, 71 µM in the test with HS 578T breast and 61.5 µM with MALME-3M melanoma.
